Test [1] concerns Splotch homozygous (Sp−/−) embryos. Description: H3K27me2, H3K27me3 and KDM6B staining of neural tube explants from folate-rescued Splotch homozygous embryos. The format is in vivo, mouse. The following applies: folate-rescued Sp−/− embryos E10.0 (30 somite), neural crest cells of neural tube explants, compared with wild-type. The method, then:
After 140 hours neural crest cells were allowed to differentiate in the absence of growth factor for 2 days. After differentiation, neural crest cells from wild-type and Sp−/− embryo explant cultures were stained with DAPI, H3K27me2, H3K27me3 and KDM6B antibodies (Abeam, Inc Cambridge, Mass. 02139-1517). DAPI, H3K27me2, H3K27me3 and KDM6B positive cells from five different explant cultures were counted and expressed as a percentage of DAPI positive cells. […] The protein loading control was ascertained with Ponseau S staining.

For test [2] the test system is unchanged. Description: Rescue of neural tube defect in Pax3 mutant Splotch mouse model of spina bifida. Format: in vivo.

In the case of `Nc1nc2ncc(CNc3ccc(C(=O)N[C@@H](CCC(=O)O)C(=O)O)cc3)nc2c(=O)[nH]1` [Folic acid, folic acid], in test [1], the “H3K27me2 expression (positive cells as a percentage of DAPI positive cells)” value is reported as “reversal to near wild-type expression”, the “H3K27me3 expression (positive cells as a percentage of DAPI positive cells)” value was “reversal to near wild-type expression” and the “KDM6B expression (positive cells as a percentage of DAPI positive cells)” value is “reversal to near wild-type expression”. The “H3K27me2 expression (positive cells as a percentage of DAPI positive cells)” value in test [1] (listed as folic acid) is recorded as “reversal”. In test [2], the neural tube defect entry is reported as “rescue of neural tube defect”.
